ChEMBL document CHEMBL1130058, “Structure-cytoprotective activity relationship of simple molecules containing an alpha,beta-unsaturated carbonyl system” (1997)

Organism: Rattus norvegicus
Experiment: Gastric cytoprotective activity in male wistar rat
Type: functional

| Compound | Cytoprotective effect |
| --- | --- |
| C/C=C(\C)C(=O)O | 5 |
| O=C1C=CCCO1 | 0.55 |
| C/C=C(\C)C(=O)OCC | 4.8 |
| O=c1ccc2ccccc2o1 [COUMARIN] | 4.7 |
| CC1CC(O)=CC(=O)O1 (centres undefined) | 4.66 |
| O=C(O)/C=C/c1ccccc1 [CINNAMIC ACID] | 5 |
| C#CC(=O)OCC [PROPYNOIC ACID ETHYL ESTER] | 0.43 |
| C=CC(=O)OCC [ACRYLIC ACID ETHYL ESTER] | 4.3 |
| CC1=CC(=O)C(=C(C)C)CC1 | 4.3 |
| C=C1CCOC1=O [TULIPALINE A] | 0.25 |
| C/C=C(/C)C(=O)OC | 5 |
| O=C1C=CCC1 | 1.3 |
| COC(=O)C=C(C)C | 4.5 |
| C=CC#N [ACRYLONITRILE] | 3.5 |
| COc1cc2c(c3oc(=O)ccc13)OCO2 | 4.2 |
| C=C(C=O)C1CC=C(C)CC1 (centres undefined) | 0.9 |
| C/C=C(\C)C(=O)OC | 5 |
| C=C(C)C(=O)OC | 4.8 |
| CC1=CC(=O)CC1 | 4.3 |
| O=C/C=C/c1ccccc1 [CINNAMALDEHYDE] | 4.5 |
| CCOC(=O)CC(=O)c1ccoc1 | 4.75 |
| O=c1cc(O)c2ccccc2o1 [4-HYDROXYCOUMARINS] | 4.62 |
| COC(=O)/C=C/c1ccccc1 [E-METHYL CINNAMATE] | 2.9 |
| O=C(O)/C=C/c1ccoc1 | 4.6 |
| O=c1ccc2ccc(O)cc2o1 [UMBELLIFERONE] | 3.8 |
| C/C=C(\C)C=O [2-methyl-(E)-2-butenal] | 4.6 |
| C/C=C(/C)C(=O)O | 3.5 |
| C=C(C=O)C1CCC(C)(O)CC1 (centres undefined) | 0.7 |
| COc1cc2ccc(=O)oc2c(O)c1O [FRAXETIN] | 4.75 |
